Data published in PubChem BioAssay (NCI).
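Where inhibition never reached the appropriate level, the endpoint shown equals the highest concentration tested. Otherwise, values were interpolated linearly from a five-concentration, 48-hour dose response in 96-well plates. The concentration for 50% growth inhibition is given as GI50. TGI is the concentration that stops growth completely.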

How the values were obtained:
Assay in all cases: NCI anticancer screen, dose series, 48 h
MDA-MB-435 = test system: MDA-MB-435
UO-31 renal = test system: UO-31 renal
KM12 colon = test system: KM12 colon
OVCAR-5 ovarian = test system: OVCAR-5 ovarian
HOP-62 NSCLC = test system: HOP-62 NSCLC
MOLT-4 leukemia = test system: MOLT-4 leukemia
SK-MEL-28 melanoma = test system: SK-MEL-28 melanoma
SNB-75 CNS = test system: SNB-75 CNS
CAKI-1 renal = test system: CAKI-1 renal
SF-268 CNS = test system: SF-268 CNS

SMILES | GI50 (MDA-MB-435) | TGI (MDA-MB-435) | GI50 (UO-31 renal) | TGI (UO-31 renal) | GI50 (KM12 colon) | TGI (KM12 colon) | GI50 (OVCAR-5 ovarian) | TGI (OVCAR-5 ovarian) | GI50 (HOP-62 NSCLC) | TGI (HOP-62 NSCLC) | GI50 (MOLT-4 leukemia) | TGI (MOLT-4 leukemia) | GI50 (SK-MEL-28 melanoma) | TGI (SK-MEL-28 melanoma) | GI50 (SNB-75 CNS) | TGI (SNB-75 CNS) | GI50 (CAKI-1 renal) | TGI (CAKI-1 renal) | GI50 (SF-268 CNS) | TGI (SF-268 CNS)
CCCOC(=O)N1CCN(/[N+]([O-])=N/Oc2ccc([N+](=O)[O-])cc2[N+](=O)[O-])CC1 | 0.366 µM | 12.2 µM | 3.5 µM | 48.9 µM | 2.01 µM | 5.66 µM | 3.43 µM | 12.7 µM | 2.58 µM | 6.4 µM | 2.35 µM | > 100 µM | 6.04 µM | 39.4 µM | 18.2 µM | 36.1 µM | 2.16 µM | 5.04 µM | 3.19 µM | 11.1 µM
CCN(CC)Cc1ccc(Nc2nccc(-c3cnn4ncccc34)n2)cc1 | 0.0232 µM | 0.0945 µM | 0.0114 µM | > 8.73 µM | 0.0101 µM | 0.102 µM | 0.0209 µM | > 25 µM | 0.0145 µM | > 25 µM | 0.0388 µM | 0.144 µM | 0.015 µM | 0.0727 µM | 0.0114 µM | 0.0529 µM | 0.0469 µM | > 9.11 µM | 0.0145 µM | 0.607 µM
C=C(CO[Si](C)(C)C(C)(C)C)C(C)=O | – | 36.3 µM | – | > 66 µM | – | > 100 µM | – | 86.2 µM | – | > 100 µM | – | > 21.2 µM | – | 34.6 µM | – | 62.3 µM | – | 46.9 µM | – | > 74.6 µM
O=C(/C=C/c1ccc([N+](=O)[O-])cc1)c1ccc2c3c(cccc13)CC2 | 15.8 µM | > 63.4 µM | 10.4 µM | > 62.6 µM | 3.1 µM | 14.2 µM | > 64.2 µM | > 100 µM | 11.4 µM | > 81.9 µM | 1.27 µM | 11.3 µM | 18.2 µM | 58.9 µM | 4.95 µM | 23.8 µM | 9.69 µM | > 100 µM | 8.18 µM | > 100 µM
Nc1nc(Nc2ccc(C3CCC(N4CCOCC4)CC3)cc2)nn1-c1ccccn1 (stereo not given) | 3.57 µM | > 100 µM | 2.48 µM | > 33.7 µM | 0.18 µM | 38 µM | 4.17 µM | > 100 µM | 3.04 µM | > 68.4 µM | 2.86 µM | 20.1 µM | 4.34 µM | 16.4 µM | 1.9 µM | 11.9 µM | 2.44 µM | > 52.2 µM | 2.93 µM | > 100 µM
